Experimental data reported in the supplement of paper PMC10307832.

Compound: COc1cc(-c2nn([C@H]3CC[C@H](N4CCN(C(C)=O)CC4)CC3)c3ncnc(N)c23)ccc1NC(=O)c1cc2ccccc2n1C + C[C@]1(O)C[C@@H](c2nc(-c3ccc4ccc(-c5ccccc5)nc4c3)c3c(N)nccn32)C1 [Linsitinib] (partner 1 µM)
Assay: relative viability (nuclei count vs DMSO), 5 days (fraction); higher = more cells survive
Settings: first compound 0.04048 µM
Outline: (§1)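 Nuclei were stained with Hoechst during a one-step fixation (final 0.05% Triton X-100, 1% formaldehyde, 1 ug/ml Hoechst) carried out 5 days after dosing, then counted on 4× images. The cells, lung cancer lines in 1536-well plates, had been dosed by pin tool the day after seeding with one drug alone or a fixed anchor-drug dose plus five library-drug doses (not always all listed) in √10 steps. Relative viability is the nuclei count in treated wells divided by that in vehicle wells, and each value is the median of duplicate plates.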

Row | Cell Line | relative viability
1 | NCI-H1915 | 1.13

Same assay, conditions: first compound 0.128 µM

Row | Cell Line | relative viability
2 | NCI-H2126 | 0.701
3 | EMC-BAC-2 | 0.815
4 | NCI-H2085 | 0.834
5 | NCI-H1666 | 0.733
6 | NCI-H596 | 1.12
7 | LK-2 | 0.461
8 | NCI-H2087 | 1.12
9 | SK-MES-1 | 1.07
10 | H3255 | 0.887
11 | COR-L23 | 0.992
12 | COR-L 105 | 0.898
13 | LOU-NH91 | 1.02
14 | NCI-H2405 | 0.721
15 | HOP-62 | 0.881
16 | HCC-44 | 0.692
17 | LU99A | 0.543

Row | Cell Line | relative viability
18 | BEN | 0.851
19 | HARA | 0.891
20 | NCI-H322M | 0.767
21 | LCLC-97TM1 | 0.173
22 | NCI-H2009 | 1.2
23 | A-427 | 1.07
24 | NCI-H441 | 0.603
25 | NCI-H661 | 0.448
26 | NCI-H1734 | 0.873
27 | NCI-H460 | 0.669
28 | NCI-H2347 | 0.961
29 | SK-LU-1 | 0.839
30 | NCI-H1395 | 0.916
31 | 201T | 0.927
32 | NCI-H1915 | 1.11

Same assay, conditions: first compound 1.28 µM

Row | Cell Line | relative viability
33 | NCI-H2126 | 0.537
34 | EMC-BAC-2 | 0.521
35 | NCI-H2085 | 0.851
36 | NCI-H1666 | 0.771
37 | NCI-H596 | 0.748
38 | LK-2 | 0.231
39 | NCI-H2087 | 1.11
40 | SK-MES-1 | 1.06
41 | H3255 | 0.663
42 | COR-L23 | 0.924
43 | COR-L 105 | 0.549
44 | LOU-NH91 | 0.833
45 | NCI-H2405 | 0.326
46 | HOP-62 | 0.843
47 | HCC-44 | 0.536
48 | LU99A | 0.524

Row | Cell Line | relative viability
49 | BEN | 0.644
50 | HARA | 0.62
51 | NCI-H322M | 0.803
52 | LCLC-97TM1 | 0.238
53 | NCI-H2009 | 0.931
54 | A-427 | 0.963
55 | NCI-H441 | 0.491
56 | NCI-H661 | 0.357
57 | NCI-H1734 | 0.717
58 | NCI-H460 | 0.344
59 | NCI-H2347 | 1.09
60 | SK-LU-1 | 0.558
61 | NCI-H1395 | 0.768
62 | 201T | 0.665
63 | NCI-H1915 | 1.03

Compound: CO[C@@H]1[C@H](N(C)C(=O)c2ccccc2)C[C@H]2O[C@]1(C)n1c3ccccc3c3c4c(c5c6ccccc6n2c5c31)C(=O)NC4 [Midostaurin] + Cc1nc(NC(=O)N2CCC[C@H]2C(N)=O)sc1-c1ccnc(C(C)(C)C(F)(F)F)c1 [Alpelisib] (partner 2 µM)
Assay: as above
Settings: first compound 0.01 µM
Outline: as §1

Row | Cell Line | relative viability
64 | NCI-H2126 | 0.772
65 | EMC-BAC-2 | 0.765
66 | NCI-H2085 | 0.961
67 | NCI-H1666 | 1.06
68 | NCI-H596 | 0.587
69 | LK-2 | 1.09
70 | NCI-H2087 | 1.2
71 | SK-MES-1 | 0.886
72 | H3255 | 0.724
73 | COR-L23 | 0.737
74 | COR-L 105 | 1.08
75 | LOU-NH91 | 0.776
76 | NCI-H2405 | 0.87
77 | HOP-62 | 0.957
78 | HCC-44 | 0.831
79 | LU99A | 0.437

Row | Cell Line | relative viability
80 | BEN | 1.03
81 | HARA | 0.794
82 | NCI-H322M | 0.836
83 | LCLC-97TM1 | 0.251
84 | NCI-H2009 | 1.24
85 | A-427 | 1.05
86 | NCI-H441 | 0.817
87 | NCI-H661 | 0.684
88 | NCI-H1734 | 0.656
89 | NCI-H460 | 0.47
90 | NCI-H2347 | 0.995
91 | SK-LU-1 | 0.913
92 | NCI-H1395 | 1.09
93 | 201T | 1.04
94 | NCI-H1915 | 1.04

Same assay, conditions: first compound 0.03162 µM

Row | Cell Line | relative viability
95 | NCI-H2126 | 0.733
96 | EMC-BAC-2 | 0.717
97 | NCI-H2085 | 0.9
98 | NCI-H1666 | 0.788
99 | NCI-H596 | 0.546
100 | LK-2 | 1.48
101 | NCI-H2087 | 0.978
102 | SK-MES-1 | 0.818
103 | H3255 | 0.7
104 | COR-L23 | 0.659
105 | COR-L 105 | 0.823
106 | LOU-NH91 | 0.673
107 | NCI-H2405 | 0.903
108 | HOP-62 | 0.636
109 | HCC-44 | 0.837
110 | LU99A | 0.457
111 | BEN | 1.02
112 | HARA | 0.795
113 | NCI-H322M | 0.686
114 | NCI-H2009 | 1.01
115 | A-427 | 0.996
116 | NCI-H441 | 0.669
117 | NCI-H661 | 0.601
118 | NCI-H1734 | 0.618
119 | NCI-H460 | 0.433
120 | NCI-H2347 | 0.988
121 | SK-LU-1 | 1.17
122 | NCI-H1395 | 1.08
123 | 201T | 1.01
124 | NCI-H1915 | 1.02

Same assay, conditions: first compound 0.1 µM

Row | Cell Line | relative viability
125 | NCI-H2126 | 0.765
126 | EMC-BAC-2 | 0.586
127 | NCI-H2085 | 0.907
128 | NCI-H1666 | 0.838
129 | NCI-H596 | 0.508
130 | LK-2 | 1.11
131 | NCI-H2087 | 1.05
132 | SK-MES-1 | 0.986
133 | H3255 | 0.698
134 | COR-L23 | 0.818
135 | COR-L 105 | 0.778
136 | LOU-NH91 | 0.724
137 | HOP-62 | 0.913
138 | HCC-44 | 0.761
139 | LU99A | 0.396
140 | BEN | 0.968
141 | HARA | 0.724
142 | NCI-H322M | 0.882
143 | LCLC-97TM1 | 0.185
144 | NCI-H2009 | 1.05
145 | A-427 | 1.07
146 | NCI-H441 | 0.536
147 | NCI-H661 | 0.758
148 | NCI-H1734 | 0.69
149 | NCI-H460 | 0.371
150 | NCI-H2347 | 0.964
151 | SK-LU-1 | 0.894
152 | NCI-H1395 | 1.3
153 | 201T | 1.02
